According to patent US20230302150A1, “ANTIBODY-TLR AGONIST CONJUGATES, METHODS AND USES THEREOF” (Ambrx, Inc., priority 2020, published 2023):
Where two headings read alike, the source gives them in different places.

Target: T1, hTLR7 (Homo sapiens, UniProt Q9NYK1)
T1 construct: expressed in transfected cells; host or cells: HEK-Blue hTLR7 reporter cell line
T1 sequence (Q9NYK1 27-1049): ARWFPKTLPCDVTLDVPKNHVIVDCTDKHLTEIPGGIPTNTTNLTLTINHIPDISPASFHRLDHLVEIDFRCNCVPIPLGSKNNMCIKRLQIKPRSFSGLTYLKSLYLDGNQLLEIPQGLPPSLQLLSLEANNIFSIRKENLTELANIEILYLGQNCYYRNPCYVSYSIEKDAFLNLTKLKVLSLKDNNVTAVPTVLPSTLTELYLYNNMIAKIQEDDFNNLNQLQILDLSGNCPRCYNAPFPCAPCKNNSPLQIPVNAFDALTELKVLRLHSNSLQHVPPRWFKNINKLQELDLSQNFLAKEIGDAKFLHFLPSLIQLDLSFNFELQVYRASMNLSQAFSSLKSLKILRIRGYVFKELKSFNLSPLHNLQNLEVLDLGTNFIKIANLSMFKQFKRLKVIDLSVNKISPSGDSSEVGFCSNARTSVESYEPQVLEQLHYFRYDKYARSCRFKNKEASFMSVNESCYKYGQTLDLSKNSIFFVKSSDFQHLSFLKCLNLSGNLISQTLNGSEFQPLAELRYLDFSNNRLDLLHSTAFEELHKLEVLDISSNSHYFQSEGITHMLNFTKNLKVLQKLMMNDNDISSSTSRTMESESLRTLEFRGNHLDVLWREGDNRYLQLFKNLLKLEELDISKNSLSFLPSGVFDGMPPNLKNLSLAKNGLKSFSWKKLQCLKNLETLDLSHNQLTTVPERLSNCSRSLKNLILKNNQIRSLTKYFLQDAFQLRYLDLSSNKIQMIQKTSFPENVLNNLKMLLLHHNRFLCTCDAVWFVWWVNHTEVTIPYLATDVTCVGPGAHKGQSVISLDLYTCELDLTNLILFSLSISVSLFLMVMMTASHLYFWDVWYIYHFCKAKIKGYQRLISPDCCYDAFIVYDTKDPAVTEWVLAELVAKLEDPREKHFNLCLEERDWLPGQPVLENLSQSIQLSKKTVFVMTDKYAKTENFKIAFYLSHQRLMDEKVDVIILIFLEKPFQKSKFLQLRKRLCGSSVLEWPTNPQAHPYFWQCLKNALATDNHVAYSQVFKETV
Assay: HEK-Blue hTLR7 reporter assay (NF-kB-induced SEAP, Quanti-Blue)
Format: cell-based
Procedure: HEK-Blue™ hTLR7 cells were incubated in HEK-Blue™ Detection medium and stimulated with increasing concentrations of TLR7 or TLR8 or TLR7/8 agonists. […] The EC50 was determined from dose-response curve using Prism Software.

[1] = Table 11, TLR7 activities, read-out: EC50
[2] = Table 18, TLR7, PEG shielding, read-out: EC50

With `CCCCOc1nc(N)c2[nH]c(=O)n(Cc3ccc(CN4CCC(CCNC(=O)CCC(N)CCC(=O)NCCC5CCN(Cc6ccc(Cn7c(=O)[nH]c8c(N)nc(OCCCC)nc87)cc6)CC5)CC4)cc3)c2n1` [AXC-888, 4-amino-N1,N7-bis(2-(1-(4-((6-amino-2-butoxy-8-oxo-7H-purin-9(8H)-yl)methyl)benzyl)piperidin-4-yl)ethyl)heptanediamide] the EC50 [1] was 0.468 µM.

Work on `CCCCOc1nc(N)c2[nH]c(=O)n(Cc3ccc(CN4CCC(CCNC(=O)CCC(CCC(=O)NCCC5CCN(Cc6ccc(Cn7c(=O)[nH]c8c(N)nc(OCCCC)nc87)cc6)CC5)NC(=O)CON)CC4)cc3)c2n1` [AXC-889, N1,N7-bis(2-(1-(4-((6-amino-2-butoxy-8-oxo-7H-purin-9(8H)-yl)methyl)benzyl)piperidin-4-yl)ethyl)-4-(2-(aminooxy)acetamido)heptanediamide] yielded an EC50 (Table 12, TLR7 agonists attached to a linker, read-out: TLR Agonist Payload + Linkers EC50) of 0.697 µM.

With `CCCCOc1nc(N)c2[nH]c(=O)n(Cc3ccc(CN4CCC(CCNC(=O)C(C)C)CC4)cc3)c2n1` [AXC-890, N-(2-(1-(4-((6-amino-2-butoxy-8-oxo-7H-purin-9(8H)-yl)methyl)benzyl)piperidin-4-yl)ethyl)isobutyramide] the EC50 [1] was 0.0153 µM.

For `CCCCOc1nc(N)c2[nH]c(=O)n(Cc3ccc(CN4CCC(CCNC(=O)[C@H](C)N)CC4)cc3)c2n1` [AXC-891, (S)-2-amino-N-(2-(1-(4-((6-amino-2-butoxy-8-oxo-7H-purin-9(8H)-yl)methyl)benzyl)piperidin-4-yl)ethyl)propanamide], the EC50 (Table 13, TLR7, read-out: EC50) was 0.047 µM.

Compound `CCCCOc1nc(N)c2[nH]c(=O)n(Cc3ccc(CN4CCC(CCNC(=O)[C@@H](N)CCCNC(=N)N)CC4)cc3)c2n1` [AXC-892, (S)-2-amino-N-(2-(1-(4-((6-amino-2-butoxy-8-oxo-7H-purin-9(8H)-yl)methyl)benzyl)piperidin-4-yl)ethyl)-5-guanidinopentanamide] has an EC50 (Table 13, TLR7, read-out: EC50) of 0.073 µM.

`CCCCOc1nc(N)c2[nH]c(=O)n(Cc3ccc(CN4CCC(CCN(CC(C)C)C(=O)CCOCCON)CC4)cc3)c2n1` [AXC-893, N-(2-(1-(4-((6-amino-2-butoxy-8-oxo-7H-purin-9(8H)-yl)methyl)benzyl)piperidin-4-yl)ethyl)-3-(2-(aminooxy)ethoxy)-N-isobutylpropanamide] gave an EC50 (Table 13, TLR7, read-out: EC50) of 3.12 µM.

Compound `CCCCOc1nc(N)c2[nH]c(=O)n(Cc3ccc(CN4CCCCC4)cc3)c2n1` [AXC-894, 6-amino-2-butoxy-9-(4-(piperidin-1-ylmethyl)benzyl)-7H-purin-8(9H)-one] has an EC50 (Table 13, TLR7, read-out: EC50) of 1.67 µM, an EC50 (Table 14, read-out: TLR7 EC50) of 0.0021 µM and an EC50 (text to Table 14, TLR7, read-out: EC50) of less than 0.01 µM.

`CCCCOc1nc(N)c2[nH]c(=O)n(Cc3ccc(CN4CCC(CCNC(=O)c5ccc(N)c(OC)c5)CC4)cc3)c2n1` [AXC-895, 4-amino-N-(2-(1-(4-((6-amino-2-butoxy-8-oxo-7H-purin-9(8H)-yl)methyl)benzyl)piperidin-4-yl)ethyl)-3-methoxybenzamide] was tested, and the “TLR7 activity (comparison in words)” value was “highest potency among different payloads tested” and the EC50 (Table 13, TLR7, read-out: EC50) was 0.011 µM.

In the case of `CCCCOc1nc(N)c2[nH]c(=O)n(Cc3ccc(CN4CCC(CCNC(=O)[C@H](C)NC(=O)CON)CC4)cc3)c2n1` [AXC-896, (S)—N-(2-(1-(4-((6-amino-2-butoxy-8-oxo-7H-purin-9(8H)-yl)methyl)benzyl)piperidin-4-yl)ethyl)-2-(2-(aminooxy)acetamido)propanamide], the EC50 (Table 13, TLR7, read-out: EC50) is reported as 0.325 µM.

Compound `CCCCOc1nc(N)c2[nH]c(=O)n(Cc3ccc(CN4CCC(CCNC(=O)[C@H](CCCNC(=N)N)NC(=O)CON)CC4)cc3)c2n1` [AXC-897, (S)—N-(2-(1-(4-((6-amino-2-butoxy-8-oxo-7H-purin-9(8H)-yl)methyl)benzyl)piperidin-4-yl)ethyl)-2-(2-(aminooxy)acetamido)-5-guanidinopentanamide] has an EC50 (Table 13, TLR7, read-out: EC50) of 0.33 µM.

In the case of `CCCCOc1nc(N)c2[nH]c(=O)n(Cc3ccc(CN4CCC(C5CCNCC5)CC4)cc3)c2n1` [AXC-898, 9-(4-(4,4′-bipiperidin-1-ylmethyl)benzyl)-6-amino-2-butoxy-7H-purin-8(9H)-oneone], the EC50 (Table 13, TLR7, read-out: EC50) is reported as 0.05 µM.

In the case of `CCCCOc1cc2c([nH]c(=O)n2Cc2ccc(CN3CCC(CCNC(=O)c4ccc(N)cc4)CC3)cc2)c(N)n1` [AXC-905, 4-amino-N-(2-(1-(4-((4-amino-6-butoxy-2-oxo-2,3-dihydro-1H-imidazo[4,5-c]pyridin-1-yl)methyl)benzyl)piperidin-4-yl)ethyl)benzamidebenzamide], the EC50 (Table 14, read-out: TLR7 EC50) is reported as 0.0026 µM.

`CCCCOc1nc(N)c2[nH]c(=O)n(Cc3ccc(CN4CCC(c5ccc(N)cc5)CC4)cc3)c2n1` [AXC-908, 6-amino-9-(4-((4-(4-aminophenyl)piperidin-1-yl)methyl)benzyl)-2-butoxy-7H-purin-8(9H)-one] gave an EC50 (Table 14, read-out: TLR7 EC50) of 0.0115 µM.

Work on `CCCCOc1nc(N)c2[nH]c(=O)n(Cc3ccc(CN4CCC(C5CCN(C(=O)CCOCCON)CC5)CC4)cc3)c2n1` [AXC-909, 6-amino-9-(4-((1′-(3-(2-(aminooxy)ethoxy)propanoyl)-4,4′-bipiperidin-1-yl)methyl)benzyl)-2-butoxy-7H-purin-8(9H)-one] yielded an EC50 (Table 14, read-out: TLR7 EC50) of 0.0719 µM.

Compound `CCCCc1nc2c(N)nc3ccccc3c2n1CCCCNC(=O)CON` [AXC-910, reference compound] has an EC50 (Table 14, read-out: TLR7 EC50) of 2.59 µM.

Work on `CCCCOc1nc(N)c2[nH]c(=O)n(Cc3ccc(CN4CCC(CCNC(=O)[C@@H](N)CCCCNC(=O)CON)CC4)cc3)c2n1` [AXC-913, (S)-2-amino-N-(2-(1-(4-((6-amino-2-butoxy-8-oxo-7,8-dihydro-9H-purin-9-yl)methyl)benzyl)piperidin-4-yl)ethyl)-6-(2-(aminooxy)acetamido)hexanamide] yielded an EC50 [2] of 0.0296 µM.

`CCCCOc1nc(N)c2[nH]c(=O)n(Cc3ccc(CN4CCC(CCNC(=O)[C@H](CCCCNC(=O)CON)NC(=O)[C@H](C)NC(=O)[C@@H](N)C(C)C)CC4)cc3)c2n1` [AXC-923, (S)—N-(2-(1-(4-((6-amino-2-butoxy-8-oxo-7,8-dihydro-9H-purin-9-yl)methyl)benzyl)piperidin-4-yl)ethyl)-2-((S)-2-((S)-2-amino-3-methylbutanamido)propanamido)-6-(2-(aminooxy)acetamido)hexanamide] was tested, and the EC50 [2] was 0.434 µM.

`CCCCOc1nc(N)c2[nH]c(=O)n(Cc3ccc(CN4CCC(CCNC(=O)[C@H](CCCCNC(=O)CON)NC(=O)CCOCCOCCOCCOCCOCCOCCOCCOCCOCCOCCOCCOCCOCCOCCOCCOCCOCCOCCOCCOCCOCCOCCOCCOC)CC4)cc3)c2n1` [AXC-924, (S)—N-(2-(1-(4-((6-amino-2-butoxy-8-oxo-7,8-dihydro-9H-purin-9-yl)methyl)benzyl)piperidin-4-yl)ethyl)-6-(2-(aminooxy)acetamido)-2-PEG24-amidohexanamide] gave an EC50 [2] of 0.398 µM.

`CCCCOc1nc(N)c2[nH]c(=O)n(Cc3ccc(CN4CCC(CCNC(=O)[C@H](CCCCNC(=O)CON)NC(=O)OCc5ccc(NC(=O)[C@H](C)NC(=O)[C@@H](NC(=O)CCOCCOCCOCCOCCOCCOCCOCCOCCOCCOCCOCCOCCOCCOCCOCCOCCOCCOCCOCCOCCOCCOCCOCCOC)C(C)C)cc5)CC4)cc3)c2n1` [AXC-925, 4-((S)-2-((S)-3-methyl-2-PEG24-amidobutanamido)propanamido)benzyl ((S)-1-((2-(1-(4-((6-amino-2-butoxy-8-oxo-7,8-dihydro-9H-purin-9-yl)methyl)benzyl)piperidin-4-yl)ethyl)amino)-6-(2-(aminooxy)acetamido)-1-oxohexan-2-yl)carbamate] showed an EC50 [2] of 1.59 µM.

In the case of `CCCCOc1nc(N)c2[nH]c(=O)n(Cc3ccc(CN4CCC(CCNC(=O)[C@H](CCCCNC(=O)CON)NC(=O)OCc5ccc(NC(=O)[C@H](C)NC(=O)[C@@H](NC(C)=O)C(C)C)cc5)CC4)cc3)c2n1` [AXC-926, 4-((S)-2-((S)-2-acetamido-3-methylbutanamido)propanamido)benzyl ((S)-1-((2-(1-(4-((6-amino-2-butoxy-8-oxo-7,8-dihydro-9H-purin-9-yl)methyl)benzyl)piperidin-4-yl)ethyl)amino)-6-(2-(aminooxy)acetamido)-1-oxohexan-2-yl)carbamate], the EC50 [2] is reported as 0.824 µM.

For `CCCCOc1nc(N)c2[nH]c(=O)n(Cc3ccc(CN4CCC(CCNC(=O)[C@@H](N)Cc5ccc(Cn6cc(CON)nn6)cc5)CC4)cc3)c2n1` [AXC-931, (S)-2-amino-N-(2-(1-(4-((6-amino-2-butoxy-8-oxo-7,8-dihydro-9H-purin-9-yl)methyl)benzyl)piperidin-4-yl)ethyl)-3-(4-((4-((aminooxy)methyl)-1H-1,2,3-triazol-1-yl)methyl)phenyl)propanamide], the EC50 (Table 19, TLR7, drug-linkers with PEG shielding, read-out: EC50) was 0.49 µM.
